Tests used:
Test in all cases: relative viability (nuclei count vs DMSO), 5 days (fraction); higher = more cells survive
Metformin + Navitoclax = compound: CN(C)C(=N)NC(=N)N [Metformin] + CC1(C)CCC(c2ccc(Cl)cc2)=C(CN2CCN(c3ccc(C(=O)NS(=O)(=O)c4ccc(N[C@H](CCN5CCOCC5)CSc5ccccc5)c(S(=O)(=O)C(F)(F)F)c4)cc3)CC2)C1 [Navitoclax] (partner 0.5 µM)
Method in brief: (§1)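 A single step with final 0.05% Triton X-100, 1% formaldehyde and 1 ug/ml Hoechst fixed the cells and stained nuclei 5 days after treatment. Lung cancer cell lines in 1536-well plates had been treated by pin tool the day after seeding with one drug alone or a fixed anchor-drug dose plus five library-drug doses (not always all listed) in √10 steps, and nuclei were counted on 4× images. Relative viability is the ratio of nuclei in treated wells to nuclei in vehicle wells, taken as the median of duplicate plates.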

Metformin + Lapatinib = compound: CN(C)C(=N)NC(=N)N [Metformin] + CS(=O)(=O)CCNCc1ccc(-c2ccc3ncnc(Nc4ccc(OCc5cccc(F)c5)c(Cl)c4)c3c2)o1 [Lapatinib] (partner 2 µM)
Method in brief: as §1

Apatinib + Luminespib = compound: N#CC1(c2ccc(NC(=O)c3cccnc3NCc3ccncc3)cc2)CCCC1 [Apatinib] + CCNC(=O)c1noc(-c2cc(C(C)C)c(O)cc2O)c1-c1ccc(CN2CCOCC2)cc1 [Luminespib] (partner 0.01 µM)
Method in brief: as §1

Apatinib + Dasatinib = compound: N#CC1(c2ccc(NC(=O)c3cccnc3NCc3ccncc3)cc2)CCCC1 [Apatinib] + Cc1nc(Nc2ncc(C(=O)Nc3c(C)cccc3Cl)s2)cc(N2CCN(CCO)CC2)n1 [Dasatinib] (partner 0.075 µM)
Method in brief: as §1

Row | Cell Line | relative viability (Metformin + Navitoclax; first compound 10 µM) | relative viability (Metformin + Navitoclax; first compound 31.62 µM) | relative viability (Metformin + Navitoclax; first compound 100 µM) | relative viability (Metformin + Navitoclax; first compound 316.23 µM) | relative viability (Metformin + Navitoclax; first compound 1000 µM) | relative viability (Metformin + Lapatinib; first compound 10 µM) | relative viability (Metformin + Lapatinib; first compound 31.62 µM) | relative viability (Metformin + Lapatinib; first compound 100 µM) | relative viability (Metformin + Lapatinib; first compound 316.23 µM) | relative viability (Metformin + Lapatinib; first compound 1000 µM) | relative viability (Apatinib + Luminespib; first compound 0.08 µM) | relative viability (Apatinib + Luminespib; first compound 0.253 µM) | relative viability (Apatinib + Luminespib; first compound 0.8 µM) | relative viability (Apatinib + Luminespib; first compound 2.53 µM) | relative viability (Apatinib + Luminespib; first compound 8 µM) | relative viability (Apatinib + Dasatinib; first compound 0.08 µM) | relative viability (Apatinib + Dasatinib; first compound 0.253 µM) | relative viability (Apatinib + Dasatinib; first compound 0.8 µM) | relative viability (Apatinib + Dasatinib; first compound 2.53 µM) | relative viability (Apatinib + Dasatinib; first compound 8 µM)
1 | BEN | 0.0532 | 0.0708 | 0.0914 | 0.0748 | 0.0712 | 0.976 | 1.12 | 1.15 | 0.925 | 0.583 | 0.478 | 0.348 | 0.385 | 0.336 | 0.229 | 0.251 | 0.27 | 0.245 | 0.242 | 0.265
2 | NCI-H520 | 1.1 | 1.08 | 1.13 | 0.979 | 1.19 | 0.849 | 1.07 | 0.948 | 0.768 | 0.892 | 0.218 | 0.245 | 0.223 | 0.216 | 0.207 | 0.228 | 0.205 | 0.176 | 0.203 | 0.203
3 | NCI-H2023 | – | 0.973 | 0.876 | – | 0.567 | – | 0.975 | 0.74 | – | 0.764 | 0.981 | 0.917 | 0.708 | 0.507 | 0.649 | 0.566 | 0.639 | 0.536 | 0.392 | 0.358
4 | NCI-H1793 | 0.335 | 0.395 | 0.482 | 0.442 | 0.489 | 0.733 | 0.773 | 0.902 | 0.73 | 0.759 | 0.185 | 0.183 | 0.157 | 0.172 | 0.193 | 0.427 | 0.345 | 0.337 | 0.37 | 0.3
5 | NCI-H838 | 1.19 | 1.23 | 1.21 | 1.15 | 1.22 | 1.13 | 0.987 | 0.918 | 0.951 | 0.888 | 0.332 | 0.286 | 0.388 | 0.282 | 0.249 | 0.353 | 0.303 | 0.272 | 0.328 | 0.268
6 | SW 1573 | 0.878 | 0.835 | 1.11 | 0.994 | 1.1 | 1.1 | 1.09 | 1.09 | 1.03 | 1.18 | 0.318 | 0.184 | 0.183 | 0.162 | 0.195 | 0.454 | 0.624 | 0.393 | 0.351 | 0.458
7 | HCC-15 | 0.686 | 0.726 | 0.719 | 0.618 | 0.699 | 0.54 | 0.908 | 0.891 | 0.785 | 0.913 | 0.364 | 0.241 | 0.302 | 0.317 | 0.316 | 0.686 | 0.626 | 0.605 | 0.574 | 0.63
8 | NCI-H1666 | 1.17 | 1.05 | 0.956 | 0.899 | 1.07 | 0.57 | 0.557 | 0.601 | 0.535 | 0.67 | 0.948 | 1.07 | 1.04 | 0.983 | 1.05 | 0.931 | 0.803 | 0.796 | 0.703 | 0.713
9 | A-427 | 1.01 | 1 | 0.969 | 0.978 | 0.887 | 0.943 | 1.06 | 1.04 | 0.994 | 0.951 | 0.924 | 0.779 | 0.928 | 0.72 | 0.8 | 0.706 | 0.66 | 0.798 | 0.671 | 0.575
10 | LU99A | 0.693 | 0.743 | 0.677 | 0.814 | 0.749 | 0.92 | 0.904 | 0.837 | 0.864 | 0.985 | 0.294 | 0.302 | 0.221 | 0.241 | 0.213 | 0.526 | 0.565 | 0.523 | 0.486 | 0.416
11 | NCI-H727 | 0.503 | 0.514 | 0.496 | 0.512 | 0.535 | 0.863 | 0.917 | 0.615 | 0.728 | 0.884 | 0.307 | 0.31 | 0.393 | 0.387 | 0.233 | 0.374 | 0.372 | 0.346 | 0.29 | 0.42
12 | EPLC-272H | 1.23 | 1.1 | 1.04 | 1.1 | 1.4 | 1.22 | 1.09 | 1.09 | 1.15 | 1.05 | 0.898 | – | 0.92 | 0.329 | 0.201 | 0.382 | – | 0.358 | 0.355 | 0.335
